Experiments:
(His)6-SOX11-DBD protein = biological target: T1, (His)6-SOX11-DBD protein (Homo sapiens, UniProt P35716); assay: Surface Plasmon Resonance (SPR) assay; assay type: binding; conditions: immobilized recombinant (His)6-SOX11-DBD, 25° C., compounds 5-40 μM, mean of three experiments
T1 construct: Recombinant (His)6-SOX11-DBD protein was immobilized
T1 sequence (P35716 49-117 limits assumed): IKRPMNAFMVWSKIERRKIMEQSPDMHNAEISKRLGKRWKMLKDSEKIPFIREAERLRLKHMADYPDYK

Jeko-1 (SOX11+) = assay: Cell viability assay (CellTiter-Blue resazurin reduction); assay type: cell-based; conditions: JeKo-1 cells; for IC50: 0-40 μM
Summary of the method: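 Cells were exposed to compound for 72 h, then resazurin reduction (CellTiter-Blue, 2 h) was read by fluorescence and converted to viable cell number via a standard curve. Viability was normalised to 0.2% DMSO-treated cells. IC50 came from a sigmoidal dose-response fit, three separate experiments.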

[1] = Homo sapiens, JeKo-1, 72 h, 20 μM compound, normalized to 0.2% DMSO

Row | SMILES | Kd ((His)6-SOX11-DBD protein) [µM] | IC50 (Jeko-1 (SOX11+); Homo sapiens, JeKo-1, 72 h) [µM] | viability at 20 µM (Jeko-1 (SOX11+); [1]) [%] | Jeko-1 Viability at 20 μM (%) (Jeko-1 (SOX11+); 20 μM compound, 72 hours, normalized to 0.2% DMSO, 20 µM) | IC50 (Jeko-1 (SOX11+); 72 hours) [µM]
1 | CC1Oc2ccc(C(=O)Nc3ccc(S(=O)(=O)Nc4ccccc4)cc3)cc2NC1=O (stereo not drawn) | 15.3 | 12 | 9.09 | – | –
2 | CC1Sc2ccc(C(=O)Nc3ccc(S(=O)(=O)Nc4ccc(F)cc4)cc3)cc2NC1=O (stereo not drawn) | 15.9 | > 20 | 80.1 | – | –
3 | CC1Sc2ccc(C(=O)Nc3ccc(S(N)(=O)=O)cc3)cc2NC1=O (stereo not drawn) | 83.3 | > 20 | 101 | – | –
4 | CC1Sc2ccc(C(=O)Nc3ccc(S(=O)(=O)N4CCCC4)cc3)cc2NC1=O (stereo not drawn) | 138 | 8.5 | 2.97 | – | –
5 | CC1Sc2ccc(C(=O)Nc3ccc(S(=O)(=O)N(C)C)cc3)cc2NC1=O (stereo not drawn) | 15.4 | 15 | 19.6 | – | –
6 | CCN(CC)S(=O)(=O)c1ccc(NC(=O)c2ccc3c(c2)NC(=O)C(C)S3)cc1 (stereo not drawn) | 30.9 | 7.5 | 0.6 | – | –
7 | CC1Sc2ccc(C(=O)Nc3ccc(S(=O)(=O)Nc4ccccn4)cc3)cc2NC1=O (stereo not drawn) | 130 | > 20 | 96.4 | – | –
8 | CC1Sc2ccc(C(=O)Nc3ccc(S(=O)(=O)NC4CC4)cc3)cc2NC1=O (stereo not drawn) | 18.9 | 7 | 14.9 | – | –
9 | CC1Sc2ccc(C(=O)Nc3ccc(S(=O)(=O)N(C)C(C)C)cc3)cc2NC1=O (stereo not drawn) | 38.9 | 8 | 0.92 | – | –
10 | CC(C)NS(=O)(=O)c1ccc(NC(=O)c2ccc3c(c2)NC(=O)C(C)S3)cc1 (stereo not drawn) | 9.79 | 8 | 20.3 | – | –
11 | CC1Sc2ccc(C(=O)Nc3cccc(S(=O)(=O)Nc4ccccc4)c3)cc2NC1=O (stereo not drawn) | 18.6 | 10 | 2.81 | – | –
12 | CC1Sc2ccc(C(=O)Nc3cccc(S(=O)(=O)N4CCCCC4)c3)cc2NC1=O (stereo not drawn) | 41.5 | 10 | 0.6 | – | –
13 | CC1Sc2ccc(C(=O)Nc3cccc(S(=O)(=O)N(C)C)c3)cc2NC1=O (stereo not drawn) | 69.5 | 8.5 | 1.43 | – | –
14 | CCN(CC)S(=O)(=O)c1cccc(NC(=O)c2ccc3c(c2)NC(=O)C(C)S3)c1 (stereo not drawn) | 31.2 | 8 | 0.44 | – | –
15 | CC1Sc2ccc(C(=O)Nc3ccc(S(=O)(=O)Nc4ccccc4)cc3)cc2NC1=O (stereo not drawn) [drawing 468] | 38 | – | – | 0.83 | 12.5

Stronger by Kd ((His)6-SOX11-DBD protein), values ahead:

Row | Kd ((His)6-SOX11-DBD protein) [µM] | SMILES | IC50 (Jeko-1 (SOX11+); Homo sapiens, JeKo-1, 72 h) [µM] | viability at 20 µM (Jeko-1 (SOX11+); [1]) [%] | Jeko-1 Viability at 20 μM (%) (Jeko-1 (SOX11+); 20 μM compound, 72 hours, normalized to 0.2% DMSO, 20 µM) | IC50 (Jeko-1 (SOX11+); 72 hours) [µM]
16 | 7.23 | CC1Sc2ccc(C(=O)Nc3ccc(S(=O)(=O)Nc4cccnc4)cc3)cc2NC1=O (stereo not drawn) | > 20 | 92 | – | –
17 | 7.13 | CC1Sc2ccc(C(=O)Nc3ccc(S(C)(=O)=O)cc3)cc2NC1=O (stereo not drawn) | 15 | 30.6 | – | –
18 | 4.36 | CC1Sc2ccc(C(=O)Nc3ccc(S(=O)(=O)Nc4ccccc4)c(Cl)c3)cc2NC1=O (stereo not drawn) | 5 | 1.8 | – | –
19 | 3.63 | CC1Sc2ccc(C(=O)Nc3ccc(S(=O)(=O)N4CCCCC4)cc3)cc2NC1=O (stereo not drawn) | 8 | 7.38 | – | –
20 | 3.12 | CC1Sc2ccc(C(=O)Nc3ncc(S(=O)(=O)Nc4ccccc4)s3)cc2NC1=O (stereo not drawn) | > 20 | 88 | – | –
21 | 3.1 | CC1Sc2ccc(C(=O)Nc3ccc(S(=O)(=O)Nc4ccccc4)cc3Cl)cc2NC1=O (stereo not drawn) | < 20 | 36.2 | – | –
22 | 2.63 | CC1Sc2ccc(C(=O)Nc3ccc(S(=O)(=O)N4CCCCCC4)cc3)cc2NC1=O (stereo not drawn) | 7.5 | 0.46 | – | –
23 | 2.5 | Cc1cc(NC(=O)c2ccc3c(c2)NC(=O)C(C)S3)ccc1S(=O)(=O)Nc1ccccc1 (stereo not drawn) | 10 | 1.22 | – | –
24 | 1.43 | CCC1Sc2ccc(C(=O)Nc3ccc(S(=O)(=O)Nc4ccccc4)cc3)cc2NC1=O (stereo not drawn) | 12 | 36.7 | – | –
25 | 1.26 | CC1Sc2ccc(C(=O)Nc3ccc(S(=O)(=O)Nc4cccc(F)c4)cc3)cc2NC1=O (stereo not drawn) | < 20 | 28.2 | – | –
